Holding throughout (experiment): NCI anticancer screen, dose series, 48 h
The subject of experiment [1] is MDA-MB-435.
Experiment [2] relates to MCF7 breast.
Experiment [3] deals with HS 578T breast.
Experiment [4] has as its system MDA-N.

“And” between values parts separate entries of the source, which are not always exact repeats. Equal entries are not always repeated.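 Test compounds were applied to cells in 96-well plates for 48 hours at 5 doses. Abbreviation: GI50, concentration required for 50% inhibition of growth. TGI denotes the concentration required for complete inhibition of growth.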

As to `C/C(=C(/c1ccc(O)cc1)c1ccc(OCCN2CCCC2)cc1)c1ccccc1`, the results for the GI50 in experiment [1] and in experiment [3] were 1.88 µM and 2.96 µM, respectively. For the same compound, the results for the TGI in experiment [1], in experiment [2] and in experiment [3] were 4.4 µM, 2.72 µM and 9.9 µM, respectively.

On to `CC(C)(C)n1cc(-c2ccnc(NCCNS(=O)(=O)c3ccc(Br)cc3)c2)c(-c2cccc(O)c2)n1`, for which the values for the GI50 in experiment [1] and in experiment [2] were 1.78 µM and 1.48 µM, respectively. In addition, the TGI turned out to be 3.35 µM in experiment [1] and 3.7 µM in experiment [2].

Regarding `CCN(CC)CCC(=O)Nc1ccc(Cn2nnc3c2C(=O)c2nnn(Cc4ccc(NC(=O)CCN(CC)CC)cc4)c2C3=O)cc1`, the figures for the GI50 in experiment [1], in experiment [2] and in experiment [3] were 0.173 µM, 0.154 µM and 2.34 µM, respectively. Further, the TGI was 0.324 µM in experiment [1], 0.373 µM in experiment [2] and 8.84 µM in experiment [3].

As to `Cc1nnc([S-])s1.[Au+].c1ccc([PH+](c2ccccc2)c2ccccc2)cc1`, in experiment [1], the GI50 was 1.7 µM and the TGI stood at 3.18 µM.

As to `COc1ccccc1Cn1cc2c(c1)-c1oncc1CC2`, the GI50 is 0.208 µM in experiment [1], 0.381 µM in experiment [2] and 0.384 µM in experiment [3]. Moreover, the TGI in experiment [1] was 0.545 µM; in experiment [2], over 66.5 µM; in experiment [3], 3.03 µM.

As for `Cc1c(C(C)C)cc(OCCO)cc1C(C)C`, the TGI in experiment [1] was over 100 µM; in experiment [2], over 100 µM; in experiment [4], over 100 µM; in experiment [3], 93.3 µM.

`CCOP(=O)(OCC)/C(C#N)=C\c1cccc2ccccc12`: the TGI in experiment [1] was over 100 µM; in experiment [2], over 100 µM; in experiment [4], over 100 µM; in experiment [3] it was 57.7 µM.

Regarding `CC1Cc2c(N(C)C)ncnc2N(C)c2ccc(Cl)cc21` (stereo unspecified), the GI50 in experiment [1] is 0.397 µM; in experiment [2] it was 1.51 µM; in experiment [3], 3.08 µM. Moreover, the TGI in experiment [1], in experiment [2] and in experiment [3] was over 100 µM in each case.

As to `Cn1c(=O)n(-c2ccc(C(C)(C)C#N)cc2)c2c3cc(-c4cnc5ccccc5c4)ccc3ncc21`, the GI50 in experiment [1] was < 0.01 µM and 0.00572 µM; in experiment [2] it was < 0.01 µM and 0.00562 µM; in experiment [3] it was < 0.01 µM and 0.00204 µM. For the same compound, the TGI in experiment [1] is 0.0687 µM; in experiment [2], 12.2 µM and > 5.84 µM and > 100 µM; in experiment [3], 0.0195 µM and 0.00587 µM.

For the compound `COc1cccc(-c2nn(-c3ccccc3)cc2-c2ccnc(NCCNC(=O)Nc3ccc(Cl)c(Cl)c3)c2)c1`, the GI50 was 1.86 µM in experiment [1], 2.46 µM in experiment [2] and 1.96 µM in experiment [3]. The TGI in experiment [1] was 4.26 µM; in experiment [2] it was 11.7 µM; in experiment [3], 5.19 µM.

As for `NC(Cc1nn[nH]n1)C(=O)O` (stereo unspecified), the TGI in experiment [1], in experiment [2], in experiment [4] and in experiment [3] was over 100 µM in each case.

`COc1ccc2nc3ccc(OC)cc3c(SCCCN)c2c1`: the GI50 is 6.83 µM in experiment [1] and 5.9 µM in experiment [3]. Besides, the figures for the TGI in experiment [1] and in experiment [3] were 27.6 µM and 15.5 µM, respectively.

With `c1ccc2c(c1)nc(NCCN1CCNCC1)c1c3ccccc3[nH]c21`, the GI50 is 0.798 µM in experiment [1], 0.0799 µM in experiment [2] and 1.19 µM in experiment [3]. For the same compound, the TGI in experiment [1] came out at 2.24 µM; in experiment [2], 0.709 µM; in experiment [3] it was 4.67 µM.

For the compound `Oc1cccc(-c2nc3ccccc3s2)c1`, the TGI is over 100 µM in experiment [1], over 100 µM in experiment [2], 98.7 µM in experiment [4] and 44.4 µM in experiment [3].

In the case of `C[C@@H](NC(=O)Cc1cc(F)cc(F)c1)C(=O)N[C@@]1(C)N=C(c2ccccc2)c2ccccc2N(C)C1=O`, the GI50 was 38.9 µM in experiment [1], 36.5 µM in experiment [2] and 24.7 µM in experiment [3]. The TGI in experiment [1], in experiment [2] and in experiment [3] was over 100 µM throughout.

Take `CCOC(=O)c1[nH]c2c(c1C)-c1[nH]c(=O)c(S(=O)(=O)c3ccccc3)cc1SC2`: the GI50 in experiment [1] is 42.8 µM; in experiment [2], 40.4 µM; in experiment [3], 24.7 µM. In addition, the TGI is over 100 µM in experiment [1], over 100 µM in experiment [2] and 94 µM in experiment [3].

In the case of `CN1C(=O)c2cc(Cl)nc3c(NC(=O)c4cccc(Cl)c4)c(Cl)c(NC(=O)c4cccc(Cl)c4)c1c23`, the figures for the GI50 in experiment [1], in experiment [2] and in experiment [3] were 1.7 µM, 1.94 µM and 2.48 µM, respectively. Also, the TGI in experiment [1] was 3.2 µM; in experiment [2], 6.26 µM; in experiment [3], 7.16 µM.

On to `COc1cc2oc3ccccc3c(=O)c2cc1CSc1ccccc1N`, for which the TGI in experiment [1] was 8.93 µM; in experiment [2] it was over 100 µM; in experiment [4], over 100 µM; in experiment [3] it was over 100 µM.

Regarding `COc1ccc(C[C@H]2C[C@@H](O)[C@@H](C)C/C=C/Cc3cccc(O)c3C(=O)O2)cn1`, the GI50 in experiment [1] is 19.9 µM; in experiment [2], 19.5 µM; in experiment [3] it was 14.4 µM. Further, the TGI was determined as 46.6 µM in experiment [1], 66.6 µM in experiment [2] and 36.7 µM in experiment [3].

For the compound `N#CC1c2ccccc2-c2ccccc2N1C(=O)c1ccccc1` (stereo unspecified), the GI50 in experiment [1] is 0.255 µM; in experiment [2], 1.3 µM; in experiment [3], 1.99 µM. The TGI is 0.761 µM in experiment [1], over 100 µM in experiment [2] and 6.72 µM in experiment [3].

Regarding `CC(CC(=O)O)(CC(=O)O)C(=O)O`, the TGI in experiment [1], in experiment [2], in experiment [4] and in experiment [3] was over 100 µM throughout.

Take `CCCC/C(=N\N=C(N)N)c1ccc(F)cc1`: the GI50 in experiment [1] is 0.381 µM; in experiment [2], 0.758 µM; in experiment [3], 2.88 µM. Besides, the figures for the TGI in experiment [1], in experiment [2] and in experiment [3] were 2.22 µM, 11.9 µM and 8.81 µM, respectively.

(Values after PubChem BioAssay (NCI).)
